In article PMC9219103 (ACS Omega, 2022):
“And” between values parts separate entries of the source, which are not always exact repeats. Identical values can stand only once. One block for each molecule: values may come before it.

Columns and labels:
SOD = conditions: read-out: SOD inhibition IC50; via copper chelation; cited from earlier work
[1] = test system: normal human cells (Wi-38); test: MTT cytotoxicity screening on normal human cells; format: cell-based; conditions: for EC100 (safe concentration at 100% cell viability): Wi-38 normal human lung fibroblasts, MTT, 72 h, mean ± SEM
[2] = test system: human colon cancer (Caco-2) cells; test: MTT anticancer screening on human colon cancer Caco-2 cells; format: cell-based; conditions: for IC50: Caco-2, MTT, 72 h, mean ± SEM; for Morphological changes of Caco-2 cells: 72 h treatment, phase contrast microscopy
Caco-2 cells = test: Determination of cellular ROS in Caco-2; format: cell-based, human; conditions: Caco-2 cells treated with anticancer IC50 dose
ALDH1A = test: Inhibition of ALDH1A activity in treated Caco-2 cells; format: cell-based, human; conditions: Caco-2 cells treated with anticancer IC50 dose, 72 h
Cu/Zn SOD = Cu/Zn SOD (Homo sapiens, UniProt P00441); test: Inhibition of intracellular SOD activity in treated Caco-2 cells; format: cell-based; conditions: Caco-2 cells treated with anticancer IC50 dose, 72 h
Sequence of Cu/Zn SOD (P00441 whole entry): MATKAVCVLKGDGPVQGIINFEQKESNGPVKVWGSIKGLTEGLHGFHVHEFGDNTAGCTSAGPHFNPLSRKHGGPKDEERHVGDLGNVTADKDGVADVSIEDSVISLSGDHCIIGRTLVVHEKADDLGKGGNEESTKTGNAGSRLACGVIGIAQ

[3] = test system: glutathione peroxidase (GPx); test: Inhibition of glutathione peroxidase activity in treated Caco-2 cells; format: cell-based, human; conditions: Caco-2 cells treated with anticancer IC50 dose, 72 h

Compound: C[N+](C)(C)CCO.C[N+](C)(C)CCO.[SH-].[SH-].[S]=[Mo]=[S] [ATN-224, bis-choline tetrathiomolybdate]
IC50 (SOD): 0.33 µM

Compound: O=C1CSC(=O)N1 [Compound 1, 2,4-thiazolidinedione]
EC100 (safe concentration at 100% cell viability) [1]: 22.05 µM and 22.047 ± 0.434 µM
IC50 ([2]; Homo sapiens, Caco-2, 72 h): 12.1 ± 3.25 µM

Compound: O=C1N=C(O)SC1=Cc1ccccc1 [Compound 3a, 5-Benzylidenethiazolidine-2,4-dione]
EC100 (safe concentration at 100% cell viability) [1]: 19.679 ± 3.105 µM
IC50 ([2]; Homo sapiens, Caco-2, 72 h): 74.6 ± 8.31 µM

Compound: O=C1NC(=O)C(=Cc2ccc([N+](=O)[O-])cc2)S1 [Compound 3c, 5-(4-Nitrobenzylidene)thiazolidine-2,4-dione]
EC100 (safe concentration at 100% cell viability) [1]: 6.0653 ± 0.127 µM
Morphological changes of Caco-2 cells [2]: severe shrinkage and collapse
IC50 [2]: 4.72 ± 0.602 µM
IC50 ([2]; Homo sapiens, Caco-2, 72 h): 4.71 µM

Compound: CN(C)c1ccc(C=C2SC(O)=NC2=O)cc1 [Compound 3d, 5-(4-(Dimethylamino)benzylidene)thiazolidine-2,4-dione]
EC100 (safe concentration at 100% cell viability) [1]: 25.35 µM and 25.345 ± 0.655 µM
IC50 ([2]; Homo sapiens, Caco-2, 72 h): 8.95 ± 0.631 µM

Compound: O=C1NC(=O)C(=Cc2ccc(O)cc2)S1 [Compound 3e, 5-(4-Hydroxybenzylidene)thiazolidine-2,4-dione]
EC100 (safe concentration at 100% cell viability) [1]: 6.727 ± 0.040 µM
IC50 ([2]; Homo sapiens, Caco-2, 72 h): 8.48 ± 0.599 µM

Compound: C=CCN1C(=O)SC(=Cc2ccccc2)C1=O [Compound 4a, 3-Allyl-5-benzylidenethiazolidine-2,4-dione]
EC100 fold relative to doxorubicin (safety) ([1]; Wi-38, EC100 compound vs DOX): approximately 47.5 folds
EC100 (safe concentration at 100% cell viability) [1]: 58.92 µM and 58.916 ± 10.698 µM
IC50 ([2]; Homo sapiens, Caco-2, 72 h): 12 ± 1.36 µM

Compound: C=CCN1C(=O)SC(=Cc2cccc(Cl)c2)C1=O [Compound 4b, 3-Allyl-5-(3-chlorobenzylidene)thiazolidine-2,4-dione]
EC100 (safe concentration at 100% cell viability) [1]: 9.902 ± 2.360 µM
IC50 ([2]; Homo sapiens, Caco-2, 72 h): 13.8 ± 0.789 µM

Compound: C=CCN1C(=O)SC(=Cc2ccc([N+](=O)[O-])cc2)C1=O [Compound 4c, 3-Allyl-5-(4-nitrobenzylidene)thiazolidine-2,4-dione]
EC100 (safe concentration at 100% cell viability) [1]: 7.078 ± 0.136 µM
IC50 ([2]; Homo sapiens, Caco-2, 72 h): 6.52 ± 0.077 µM

Compound: C=CCN1C(=O)SC(=Cc2ccc(N(C)C)cc2)C1=O [Compound 4d, 3-Allyl-5-(4-(dimethylamino)benzylidene)thiazolidine-2,4-dione]
IC50 ([2]; Homo sapiens, Caco-2, 72 h): 7.062 ± 0.005 µM

Compound: C=CCOc1ccc(C=C2SC(=O)N(CC=C)C2=O)cc1 [Compound 4e, 3-Allyl-5-(4-(allyloxy)benzylidene)thiazolidine-2,4-dione]
IC50 ([2]; Homo sapiens, Caco-2, 72 h): 12.2 ± 3.12 µM

Compound: CCOC(=O)CN1C(=O)SC(=Cc2ccccc2)C1=O [Compound 5a, Ethyl-2-(5-benzylidene-2,4-dioxothiazolidin-3-yl)acetate]
IC50 ([2]; Homo sapiens, Caco-2, 72 h): 8.2 ± 0.135 µM

Compound: CCOC(=O)CN1C(=O)SC(=Cc2ccc([N+](=O)[O-])cc2)C1=O [Compound 5c, Ethyl-2-(5-(4-nitrobenzylidene)-2,4-dioxothiazolidin-3-yl)acetate]
EC100 (safe concentration at 100% cell viability) [1]: 8.573 ± 0.409 µM
IC50 ([2]; Homo sapiens, Caco-2, 72 h): 6.67 ± 0.118 µM

Compound: CCOC(=O)CN1C(=O)SC(=Cc2ccc(N(C)C)cc2)C1=O [Compound 5d, Ethyl-2-(5-(4-(dimethylamino)benzylidene)-2,4-dioxothiazolidin-3-yl)acetate]
EC100 (safe concentration at 100% cell viability) [1]: 16.179 ± 6.066 µM
IC50 ([2]; Homo sapiens, Caco-2, 72 h): 8.24 ± 2.59 µM

Compound: CCOC(=O)COc1ccc(C=C2SC(=O)N(CC(=O)OCC)C2=O)cc1 [Compound 5e, Ethyl-2-(5-(4-(2-ethoxy-2-oxoethoxy)benzylidene)-2,4-dioxothiazolidin-3-yl)acetate]
EC100 (safe concentration at 100% cell viability) [1]: 8.417 ± 0.004 µM
IC50 ([2]; Homo sapiens, Caco-2, 72 h): 8.57 ± 0.942 µM

Compound: COc1cccc2c1C(=O)c1c(O)c3c(c(O)c1C2=O)C[C@@](O)(C(=O)CO)C[C@@H]3O[C@H]1C[C@H](N)[C@H](O)[C@H](C)O1 [DOX, doxorubicin]
Fold increment in cellular ROS level relative to untreated cells (Caco-2 cells): 4.065 folds
Inhibition of ALDH1A activity (ALDH1A): about 4.800%
Inhibition of intracellular SOD activity (Cu/Zn SOD): 30.78%
Inhibition of GPx activity [3]: 40.31%
EC100 (safe concentration at 100% cell viability) [1]: 1.239 ± 0.285 µM
IC50 [2]: 19.9 ± 2.37 µM
IC50 ([2]; Homo sapiens, Caco-2, 72 h): 19.9 µM

Second part, led by results:

Morphological changes of Caco-2 cells [2]: severe shrinkage and collapse
IC50 [2]: 4.739 ± 0.021 µM
IC50 ([2]; Homo sapiens, Caco-2, 72 h): 4.73 µM
Compound: O=C1SC(=Cc2ccccc2)C(=O)N1CCCBr [Compound 6a, 5-Benzylidene-3-(3-bromopropyl)thiazolidine-2,4-dione]
EC100 (safe concentration at 100% cell viability) [1]: 18.938 ± 0.975 µM

IC50 ([2]; Homo sapiens, Caco-2, 72 h): 10.4 ± 0.499 µM
Compound: O=C1SC(=Cc2ccc([N+](=O)[O-])cc2)C(=O)N1CCCBr [Compound 6c, 3-(3-Bromopropyl)-5-(4-nitrobenzylidene)thiazolidine-2,4-dione]
EC100 (safe concentration at 100% cell viability) [1]: 13.424 ± 1.130 µM

IC50 ([2]; Homo sapiens, Caco-2, 72 h): 7.94 ± 0.599 µM
Compound: CN(C)c1ccc(C=C2SC(=O)N(CCCBr)C2=O)cc1 [Compound 6d, 3-(3-Bromopropyl)-5-(4-(dimethylamino)benzylidene)thiazolidine-2,4-dione]
EC100 (safe concentration at 100% cell viability) [1]: 14.776 ± 1.125 µM

Morphological changes of Caco-2 cells [2]: severe shrinkage and collapse
IC50 [2]: 4.41 ± 0.546 µM
IC50 ([2]; Homo sapiens, Caco-2, 72 h): 4.41 µM
Compound: O=C1SC(=Cc2ccc(OCCCBr)cc2)C(=O)N1CCCBr [Compound 6e, 5-(4-(3-Bromopropoxy)benzylidene)-3-(3-bromopropyl)thiazolidine-2,4-dione]
EC100 (safe concentration at 100% cell viability) [1]: 10.683 ± 2.384 µM

IC50 ([2]; Homo sapiens, Caco-2, 72 h): 10.2 ± 0.77 µM
Compound: O=C1SC(=Cc2ccccc2)C(=O)N1CCCO [Compound 7a, 5-Benzylidene-3-(3-hydroxypropyl)thiazolidine-2,4-dione]
EC100 (safe concentration at 100% cell viability) [1]: 18.923 ± 1.959 µM

IC50 ([2]; Homo sapiens, Caco-2, 72 h): 6.77 ± 0.096 µM
Compound: O=C1SC(=Cc2ccc([N+](=O)[O-])cc2)C(=O)N1CCCO [Compound 7c, 3-(3-Hydroxypropyl)-5-(4-nitrobenzylidene)thiazolidine-2,4-dione]
EC100 (safe concentration at 100% cell viability) [1]: 11.439 ± 0.927 µM

IC50 ([2]; Homo sapiens, Caco-2, 72 h): 7.118 ± 0.01 µM
Compound: CN(C)c1ccc(C=C2SC(=O)N(CCCO)C2=O)cc1 [Compound 7d, 5-(4-(Dimethylamino)benzylidene)-3-(3-hydroxypropyl)thiazolidine-2,4-dione]
EC100 (safe concentration at 100% cell viability) [1]: 12.073 ± 3.577 µM
